According to patent publication US7846971B2, “N-halogenated amino acids, N,N-dihalogenated amino acids and derivatives; compositions and methods of using them” (Novabay Pharmaceuticals, Inc., priority 2005, dated 2010):
≈ marks a conversion by molar mass, not a printed value. Like-named read-outs stand apart in the source and are kept apart here.

What was measured:
[1] = test system: Escherichia coli (ATCC 11229); assay: Bactericidal activity (colony count, MBC); type: cell-based
Method: To determine the bactericidal activity, we used Escherichia coli (ATCC 11229). The bacterial culture was diluted in sterile saline to prepare inocula. Various test articles were transferred to individual tubes already containing 1.0×10^5 to 2.0×10^5 Colony Forming Units (CFU)/mL bacteria and mixed by gentle vortexing and then incubated at 37° C. for 1 or 24 hours. In an attempt to mimic as far as possible the conditions, which could be produced in vivo if the test articles were used as antiseptics, bacterial plating in a Petri dish was performed immediately after the designated exposure time without the addition of a neutralizer, and independently with addition of neutralizer (as control). Thus, 0.1 mL was removed after 1 or 24 hours exposure times and plated. Plates were incubated at 37° C., and the numbers of bacteria were counted by direct colony count to numerate the surviving bacteria as CFU/mL. Positive growth controls were made with sterile 0.9% saline. All test articles were tested three times.

[2] = test system: Primary Human Skin Fibroblasts; assay: XTT cytotoxicity assay on primary human skin fibroblasts; type: cell-based
Method: Cytotoxicity was assessed by a colorimetric assay system, initially described by Scudiero et al., using 3′-(phenylamino-carbonyl)-3,4-tetrazolium-bis (4-methoxy-6-nitro) benzene sulfonic acid hydrate (XTT), ProCheck™ cell viability assay (Evaluation of a soluble tetrazolium/formazan assay for cell growth and drug sensitivity in culture using human and other tumor cell lines described by Scudiero D A, Shoemaker R A H, Paul K D, Monks A, Tierney S, Nofziger T H, Currens M J, Seniff D, Boyd M R. Cancer Res. 1988 Septmeber 1;48(17):4827-33). […] Three cell types were used: mouse lung epithelial cells (L929), primary human skin fibroblast and primary human keratinocyte cells cultured in Dulbecco Modified Eagle's Medium and Keratinocyte defined medium with corresponding growth factors plus antibiotics. Cells were trypsinized and counted under the microscope and seeded at 1000-to-2000 cells per well of a flat-bottom 96-well plate. Cells were allowed to grow over-night at 37° C. Next day, tissue culture media was removed and cells were rinsed with fresh media 1× and then left in 50 μL of tissue culture media. Test articles were prepared as 2-fold dilutions and 200 μL was added into each set of 4-wells (total volume per well=250 μL). Cells were exposed to test articles for 60 min at room temperature. Immediately after the exposed time, test article from each well was removed and cells were fed with 250 μL of fresh media. Plates were incubated at 37° C. for 18-20 hours. The following day media was removed again and replaced with 100 μL/well of fresh media containing 10/100 μL XTT-reagent. Cells were incubated under growth conditions (5% CO2 at 37° C. humidified incubator), protected from light, until color development was achieved. Absorbance was read at 450 nm with reference wavelength at 750 nm using Molecular Device ThermoMax Plate reader, blanking the plate on the medium-only assay blank wells. Untreated cells receiving XTT reagents-only served as positive cell proliferation control.

[3] = test system: human adenovirus type 5 (Ad5, McEwen strain); assay: Antiviral plaque assay on A549 cell monolayer; type: cell-based; settings: virus mixed with sample 1 hr at 37C; for Effect on monolayer (plaques counted), 10^−0 undiluted: dilution 10^−0; for Effect on monolayer (plaques counted), 10^−1: dilution 10^−1; for Effect on monolayer (plaques counted), 10^−2: dilution 10^−2; for Effect on monolayer (plaques counted), 10^−3: dilution 10^−3; for Effect on monolayer (plaques counted), 10^−4: dilution 10^−4; for Effect on monolayer (plaques counted), 10^−5: dilution 10^−5; for Effect on monolayer (plaques counted), 10^−6: dilution 10^−6
Method: An equal volume of human adenovirus type 5 (Ad5, McEwen strain) was mixed with each of the three samples listed below. The mixtures were incubated at 37C for 1 hr and then diluted in tissue culture medium (Dulbecco's Modified Eagle Medium [DMEM] containing heat inactivated 2% fetal bovine serum). The mixtures were then diluted in 10-fold serial dilutions using the same diluent mentioned above. 0.1 ml of each diluted mixture was inoculated on to a A549 cell monolayer grown in 12 well plates (cell source, ATTC) and allowed to adsorb for 1 hr. The inoculum was removed and the monolayer rinsed with diluent and agarose/DMEM overlay applied. The plates were incubated at 37° C. in 5% CO2 atmosphere for 6 days. The monolayers were then fixed, stained and the plaques counted.

[4] = XTT cytotoxicity assay on L929 cells; type: cell-based; settings: mouse
Method: Cytotoxicity was assessed by a colorimetric assay system, initially described by Scudiero et al., using 3′-(phenylamino-carbonyl)-3,4-tetrazolium-bis (4-methoxy-6-nitro) benzene sulfonic acid hydrate (XTT), ProCheck™ cell viability assay (Evaluation of a soluble tetrazolium/formazan assay for cell growth and drug sensitivity in culture using human and other tumor cell lines described by Scudiero D A, Shoemaker R A H, Paul K D, Monks A, Tierney S, Nofziger T H, Currens M J, Seniff D, Boyd M R. Cancer Res. 1988 Septmeber 1;48(17):4827-33). […] Three cell types were used: mouse lung epithelial cells (L929), primary human skin fibroblast and primary human keratinocyte cells cultured in Dulbecco Modified Eagle's Medium and Keratinocyte defined medium with corresponding growth factors plus antibiotics. Cells were trypsinized and counted under the microscope and seeded at 1000-to-2000 cells per well of a flat-bottom 96-well plate. Cells were allowed to grow over-night at 37° C. Next day, tissue culture media was removed and cells were rinsed with fresh media 1× and then left in 50 μL of tissue culture media. […] Absorbance was read at 450 nm with reference wavelength at 750 nm using Molecular Device ThermoMax Plate reader, blanking the plate on the medium-only assay blank wells. […]

[5] = type: physicochemical
Source text: NNDCT and NCT are spectrophotometrically distinguishable. NCT has a maximum absorbance at 252 nm. […] The solution was sealed in ampoules.

[6] = type: physicochemical; remark: listed apart in the source
Source text: N,N-dichlorotaurine can be identified and quantitatively determined by UV spectroscopy.

[7] = Volatility test, tightly vs loosely capped bottles; type: physicochemical; settings: 1.47 mM in 0.9% saline
Method: NNDCT is not volatile. A solution of 1.47 mM in 0.9% saline at pH 3.5 was filled in two glass bottles. One bottle was capped tightly and another was capped loosely.

[8] = UV-vis spectrum and concentration of NNDCT solutions at varying pH; type: physicochemical; settings: 1.49 mM, pH 3.0 to 5.0
Method: The spectra and the concentrations of the solutions were measured on the UV-vis spectrometer.
Add 8.8 g NaCl, 2 ml of 1.0 M HCl, and 0.278 g of taurine into a 1000-ml volumetric flask, followed by adding about 800 ml of deionized water into the flask. Shake the flask to dissolve NaCl and taurine powders. Then add […] of 0.15M of the NaOCl solution into the flask. Fill the flask up to the mark with deionized water. Stir the solution with a magnetic stirring bar for 5 minutes. The concentration and the pH of the resulting solution were measured on a UV-vis spectrometer and a freshly calibrated Beckman pH meter. This solution has a concentration of 1.49 mM and a pH value of 3.85. […] The final pH of this solution is 3.0. […] The final pH of this solution is 4.85.

[9] = pH=1.88, after 100 hours; cited from earlier work
[10] = Escherichia coli, ATCC11229, Table 2, pH 3.5, read-out: MBC
[11] = Homo sapiens, Skin fibroblast, Table 2, pH 3.5, in vitro cytotoxicity, read-out: IC50

OCl [HOCl, hypochlorous acid, reference compound]
MBC [1, 10]: 0.16 mg/L (≈ 3.05 µM) | effective antimicrobial concentration range ([1]; pH 3.5, 60 min, 37° C.): ≥ 0.016 mM | effective antimicrobial concentration range ([1]; pH 3.5, 24 hrs, 37° C.): ≥ 0.0016 mM | IC50 [2, 11]: 47 mg/L (≈ 896 µM) | Effect on monolayer (plaques counted), 10^−0 undiluted [3]: 14 | Effect on monolayer (plaques counted), 10^−1 [3]: 9 | Effect on monolayer (plaques counted), 10^−2 [3]: 3 | Effect on monolayer (plaques counted), 10^−3 [3]: 1 | Effect on monolayer (plaques counted), 10^−4 [3]: 4 | Effect on monolayer (plaques counted), 10^−5 [3]: 4 | Effect on monolayer (plaques counted), 10^−6 [3]: 1

O=S(=O)(O)CCNCl [NCT, N-chlorotaurine]
factor by which less antimicrobial than NNDCT on an equal concentration basis [1]: 1000 fold | MBC ([1]; Escherichia coli, ATCC11229, 1 h, pH 9.5, read-out: MBC (Minimum Bactericidal Concentration)): 142 mg/L (≈ 893 µM)

O=S(=O)(O)CCN(Cl)Cl [NNDCT, N,N-dichlorotaurine]
killing efficiency of NNDCT at pH 3.5 as compared to NCT at pH 9.5 ([1]; 60 min exposure, 37° C.): 1000 fold | killing efficiency of NNDCT at pH 3.5 over NNDCT at pH 5.0 ([1]; 60 min exposure, 37° C.): about 300 fold | MBC ([1]; Escherichia coli, ATCC11229, 1 h, pH 3.5, isotonic solution, 60 min, 37° C., read-out: MBC (Minimum Bactericidal Concentration)): 0.136 mg/L (≈ 0.701 µM) | MBC ([1]; Escherichia coli, ATCC11229, 1 h, pH 5.0, isotonic solution, 60 min, 37° C., read-out: MBC (Minimum Bactericidal Concentration)): 38 mg/L (≈ 196 µM) | MBC [1, 10]: 0.29 mg/L (≈ 1.49 µM) | effectiveness against E. coli compared with HOCl ([1]; pH 3.5): better or as effective | IC50 [2, 11]: 1440 mg/L (≈ 7430 µM) | viability at 60 min, 7 mM [4]: > 90% | loss of N,N-dichlorotaurine ([5]; solution in a vial stored in a refrigerator, three months): no more than 13% | NNDCT lost ([5]; solution pH 3.5, sealed ampoules, refrigerator (4° C.), 4 weeks, initial 1.47 mM): 5.4% | solubility in water [6]: very soluble | volatility ([7]; pH 3.5): not volatile | difference in concentration between tightly and loosely capped bottle ([7]; pH 3.5, 4 weeks, room temperature): no difference | spectrum and concentration of NNDCT solution over pH range [8]: did not change | loss of N,N-dichlorotaurine [9]: less than 5%

CC(C)(CS(=O)(=O)O)N(Cl)Cl [Sample 1, N,N-dichloro-1,1-dimethylethanesulphonic acid]
Effect on monolayer (plaques counted), 10^−0 undiluted [3]: Early toxic | Effect on monolayer (plaques counted), 10^−1 [3]: 28 | Effect on monolayer (plaques counted), 10^−2 [3]: 17 | Effect on monolayer (plaques counted), 10^−3 [3]: 3 | Effect on monolayer (plaques counted), 10^−4 [3]: 3 | Effect on monolayer (plaques counted), 10^−5 [3]: 3 | Effect on monolayer (plaques counted), 10^−6 [3]: 9

Povidone-Iodine [reference compound]
MBC ([1]; Table 2, pH 4.2): 0.38 mg/L | IC50 ([2]; Table 2, pH 4.2, in vitro cytotoxicity): 2.5 mg/L
